Data taken from the supplement of paper PMC10307832.

Legend:
Experiment in all cases: relative viability (nuclei count vs DMSO), 5 days (fraction); higher = more cells survive
NCI-H2405 = tested on: NCI-H2405
Summary of the method: (§1)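 Relative viability was taken as the ratio of nuclei in treated wells to nuclei in vehicle wells. Lung cancer cell lines in 1536-well plates received compounds by pin tool one day after seeding, either one drug alone or a fixed anchor-drug dose plus five library-drug doses (not always all listed) in √10 steps. Nuclei were counted on 4× images after 5 days of treatment, and values are medians of duplicate plates.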

LC-2-ad = tested on: LC-2-ad
Summary of the method: as §1

HCC-366 = tested on: HCC-366
Summary of the method: as §1

NCI-H2228 = tested on: NCI-H2228
Summary of the method: as §1

NCI-H2347 = tested on: NCI-H2347
Summary of the method: as §1

CAL-12T = tested on: CAL-12T
Summary of the method: as §1

NCI-H1734 = tested on: NCI-H1734
Summary of the method: as §1

SW 1573 = tested on: SW 1573
Summary of the method: as §1

LK-2 = tested on: LK-2
Summary of the method: as §1

NCI-H1993 = tested on: NCI-H1993
Summary of the method: as §1

NCI-H596 = tested on: NCI-H596
Summary of the method: as §1

SK-MES-1 = tested on: SK-MES-1
Summary of the method: as §1

NCI-H2009 = tested on: NCI-H2009
Summary of the method: as §1

RERF-LC-KJ = tested on: RERF-LC-KJ
Summary of the method: as §1

PC-14 = tested on: PC-14
Summary of the method: as §1

HCC-78 = tested on: HCC-78
Summary of the method: as §1

NCI-H2085 = tested on: NCI-H2085
Summary of the method: as §1

EMC-BAC-2 = tested on: EMC-BAC-2
Summary of the method: as §1

NCI-H1355 = tested on: NCI-H1355
Summary of the method: as §1

NCI-H3122 = tested on: NCI-H3122
Summary of the method: as §1

NCI-H838 = tested on: NCI-H838
Summary of the method: as §1

HOP-62 = tested on: HOP-62
Summary of the method: as §1

ChaGo-K-1 = tested on: ChaGo-K-1
Summary of the method: as §1

Work on `Cc1cnc(-c2cnc(NCCNc3ccc(C#N)cn3)nc2-c2ccc(Cl)cc2Cl)[nH]1` + Cc1cc(Nc2cc(N3CCN(C)CC3)nc(Sc3ccc(NC(=O)C4CC4)cc3)n2)n[nH]1 [Tozasertib] (partner 0.1 µM) yielded a relative viability (NCI-H2405; first compound 0.08 µM) of 0.764, a relative viability (NCI-H2405; first compound 0.253 µM) of 0.697 and a relative viability (NCI-H2405; first compound 0.8 µM) of 0.714. It also gave a relative viability (NCI-H2405; first compound 2.53 µM) of 0.505, a relative viability (LC-2-ad; first compound 0.08 µM) of 0.439 and a relative viability (LC-2-ad; first compound 0.253 µM) of 0.392. It also gave a relative viability (LC-2-ad; first compound 2.53 µM) of 0.477, a relative viability (HCC-366; first compound 0.08 µM) of 0.0773 and a relative viability (HCC-366; first compound 0.253 µM) of 0.0701. For the same compound, the relative viability (HCC-366; first compound 0.8 µM) was 0.071, the relative viability (HCC-366; first compound 2.53 µM) was 0.0493 and the relative viability (NCI-H2228; first compound 0.08 µM) was 0.283. The relative viability (NCI-H2228; first compound 0.253 µM) was 0.267, the relative viability (NCI-H2228; first compound 0.8 µM) was 0.297 and the relative viability (NCI-H2228; first compound 2.53 µM) was 0.268. It also gave a relative viability (NCI-H2347; first compound 0.08 µM) of 0.59, a relative viability (NCI-H2347; first compound 0.253 µM) of 0.466 and a relative viability (NCI-H2347; first compound 0.8 µM) of 0.411. It also gave a relative viability (NCI-H2347; first compound 2.53 µM) of 0.481, a relative viability (CAL-12T; first compound 0.08 µM) of 0.346 and a relative viability (CAL-12T; first compound 0.253 µM) of 0.302. For the same compound, the relative viability (CAL-12T; first compound 0.8 µM) was 0.234, the relative viability (CAL-12T; first compound 2.53 µM) was 0.211 and the relative viability (NCI-H1734; first compound 0.08 µM) was 0.314. The relative viability (NCI-H1734; first compound 0.253 µM) was 0.253, the relative viability (NCI-H1734; first compound 0.8 µM) was 0.261 and the relative viability (NCI-H1734; first compound 2.53 µM) was 0.247. For the same compound, the relative viability (SW 1573; first compound 0.08 µM) was 0.177, the relative viability (SW 1573; first compound 0.253 µM) was 0.138 and the relative viability (SW 1573; first compound 0.8 µM) was 0.302. For the same compound, the relative viability (SW 1573; first compound 2.53 µM) was 0.156, the relative viability (LK-2; first compound 0.08 µM) was 0.164 and the relative viability (LK-2; first compound 0.253 µM) was 0.176. For the same compound, the relative viability (LK-2; first compound 0.8 µM) was 0.188, the relative viability (LK-2; first compound 2.53 µM) was 0.148 and the relative viability (NCI-H1993; first compound 0.08 µM) was 0.583. For the same compound, the relative viability (NCI-H1993; first compound 0.253 µM) was 0.558, the relative viability (NCI-H1993; first compound 0.8 µM) was 0.573 and the relative viability (NCI-H1993; first compound 2.53 µM) was 0.538. The relative viability (NCI-H596; first compound 0.08 µM) was 0.925, the relative viability (NCI-H596; first compound 0.253 µM) was 0.752 and the relative viability (NCI-H596; first compound 0.8 µM) was 0.839. The relative viability (NCI-H596; first compound 2.53 µM) was 0.793, the relative viability (SK-MES-1; first compound 0.08 µM) was 0.964 and the relative viability (SK-MES-1; first compound 0.253 µM) was 0.854. It also gave a relative viability (SK-MES-1; first compound 0.8 µM) of 0.999, a relative viability (SK-MES-1; first compound 2.53 µM) of 0.861 and a relative viability (NCI-H2009; first compound 0.08 µM) of 0.734. The relative viability (NCI-H2009; first compound 0.253 µM) was 0.695, the relative viability (NCI-H2009; first compound 0.8 µM) was 0.794 and the relative viability (NCI-H2009; first compound 2.53 µM) was 0.452. It also gave a relative viability (RERF-LC-KJ; first compound 0.08 µM) of 0.544, a relative viability (RERF-LC-KJ; first compound 0.253 µM) of 0.436 and a relative viability (RERF-LC-KJ; first compound 0.8 µM) of 0.367. For the same compound, the relative viability (RERF-LC-KJ; first compound 2.53 µM) was 0.382, the relative viability (PC-14; first compound 0.08 µM) was 0.611 and the relative viability (PC-14; first compound 0.253 µM) was 0.47. The relative viability (PC-14; first compound 0.8 µM) was 0.551, the relative viability (PC-14; first compound 2.53 µM) was 0.549 and the relative viability (HCC-78; first compound 0.08 µM) was 0.482. For the same compound, the relative viability (HCC-78; first compound 0.253 µM) was 0.311, the relative viability (HCC-78; first compound 0.8 µM) was 0.428 and the relative viability (HCC-78; first compound 2.53 µM) was 0.384. The relative viability (NCI-H2085; first compound 0.08 µM) was 0.886, the relative viability (NCI-H2085; first compound 0.253 µM) was 0.684 and the relative viability (NCI-H2085; first compound 0.8 µM) was 0.56. For the same compound, the relative viability (NCI-H2085; first compound 2.53 µM) was 0.469, the relative viability (EMC-BAC-2; first compound 0.08 µM) was 0.313 and the relative viability (EMC-BAC-2; first compound 0.253 µM) was 0.261. The relative viability (EMC-BAC-2; first compound 0.8 µM) was 0.252, the relative viability (EMC-BAC-2; first compound 2.53 µM) was 0.273 and the relative viability (NCI-H1355; first compound 0.08 µM) was 0.662. For the same compound, the relative viability (NCI-H1355; first compound 0.253 µM) was 0.474, the relative viability (NCI-H1355; first compound 0.8 µM) was 0.56 and the relative viability (NCI-H1355; first compound 2.53 µM) was 0.374. For the same compound, the relative viability (NCI-H3122; first compound 0.08 µM) was 0.414, the relative viability (NCI-H3122; first compound 0.8 µM) was 0.392 and the relative viability (NCI-H3122; first compound 2.53 µM) was 0.33. The relative viability (NCI-H838; first compound 0.08 µM) was 0.293, the relative viability (NCI-H838; first compound 0.253 µM) was 0.235 and the relative viability (NCI-H838; first compound 0.8 µM) was 0.281. It also gave a relative viability (NCI-H838; first compound 2.53 µM) of 0.272, a relative viability (HOP-62; first compound 0.08 µM) of 0.321 and a relative viability (HOP-62; first compound 0.253 µM) of 0.353. It also gave a relative viability (HOP-62; first compound 0.8 µM) of 0.36, a relative viability (HOP-62; first compound 2.53 µM) of 0.288 and a relative viability (ChaGo-K-1; first compound 0.08 µM) of 0.241. For the same compound, the relative viability (ChaGo-K-1; first compound 0.253 µM) was 0.215, the relative viability (ChaGo-K-1; first compound 0.8 µM) was 0.231 and the relative viability (ChaGo-K-1; first compound 2.53 µM) was 0.22.
